This note sets out measurements from EP1652839A2, “Drug efflux pump inhibitor” (priority 1999, dated 2001).

The test system of the assay is Pseudomonas aeruginosa PAM 1723 strain highly expressing the drug efflux pump. In words: Effect of combinational use with an antimicrobial agent on multidrug resistant Pseudomonas aeruginosa (broth culture, transmittance and turbidity readout). Conditions: minimum concentration of compound required to enhance antibacterial activity, MHB, 1 × 10^6 CFU/ml; for Combination with AZT: azthreonam (AZT) at 1/8 or less of the minimum inhibitory concentration, combinational use for 18 hours; for Combination with LVFX: levofloxacin (LVFX) at 1/8 or less of the minimum inhibitory concentration, combinational use for 7.5 hours. It is filed as cell-based. The text has this:
Test Example 1: Effect of combinational use with an antimicrobial agent on multidrug resistant Pseudomonas aeruginosa
As multidrug resistant Pseudomonas aeruginosa, Pseudomonas aeruginosa PAM 1723 strain highly expressing the drug efflux pump was used. As antimicrobial drugs for the combinational uses, levofloxacin (LVFX) as a quinolone antibacterial agent and azthreonam (AZT) as a monobactam antibiotic were used.
Each of the compounds shown in Table 1 with Example No., which falls within the compounds of the present invention, was subjected to the measurement of its minimum concentration (µg/ml) that was required to enhance the antibacterial activity of the antibacterial agent when the test compound was used in combination with the antibacterial drug applied at a concentration of 1/4, or 1/8 or less of the minimum inhibitory concentration against the PAM 1723 strain. […] As for levofloxacin, effects were indicated as combinational uses for 7.5 hours, and as for azthreonam, effects as combinational uses for 18 hours was indicated. The Müller-Hinton broth (MHB, Difco) was used as a medium, and the inoculated amount of the bacteria was 1 × 10^6 CFU/ml. Effects were determined by optically measuring the transmittance of the bacterial culture with time, and visually observing the turbidity of the medium.

In the case of `O=C(Cc1ccccc1C(=O)O)Nc1cccc(/C=C/c2nc(-c3ccccc3)cs2)c1` [Example 1, 2-(2-Oxo-2-3-[(E)-2-(4-phenyl-1,3-thiazol-2-yl)-1-ethenyl]anilinoethyl)-benzoic acid], the “Combination with AZT” value came out at 1.25 µg/mL and the “Combination with LVFX” value is given as “<=0.63 µg/ml”. For the compound `O=C(Cc1ccccc1C(=O)O)Nc1cccc(OCc2ccc3ccccc3n2)c1` [Example 2, 2-{2-Oxo-2-[3-(2-quinolylmethoxy)anilino]ethyl}benzoic acid], the “Combination with AZT” value was determined as 5 µg/mL and the “Combination with LVFX” value amounted to 20 µg/mL. Turning to `CC(C)c1nc(/C=C/c2cccc(NC(=O)Cc3ccccc3C(=O)O)c2)sc1Cl` [Example 3, 2-(2-3-[(E)-2-(4-Isopropyl-5-chloro-1,3-thiazol-2-yl)-1-ethenyl]anilino-2-oxoethyl)benzoic acid], the “Combination with LVFX” value is “<=2.5 µg/ml”.

For the compound `O=C(Cc1ccccc1C(=O)O)Nc1cccc(/C=C/c2ccc(-c3ccccc3)o2)c1` [Example 4, 2-[2-Oxo-2-{3-[(E)-(5-phenyl-2-furyl)-1-ethenyl]anilino}ethyl]benzoic acid], the “Combination with AZT” value amounted to 2.5 µg/mL and the “Combination with LVFX” value amounted to 10 µg/mL.

As to `CC(C)c1nc(/C=C/c2cccc(NC(=O)Cc3ccccc3C(=O)O)c2)sc1N` [Example 5, 2-{2-[3-((E)-2-{5-Amino-4-isopropyl-1,3-thiazol-2-yl}-1-ethenyl)amino]-2-oxoethyl}benzoic acid], the “Combination with AZT” value amounted to 20 µg/mL and the “Combination with LVFX” value was 10 µg/mL. Consider `O=C(Cc1ccccc1C(=O)O)Nc1cccc(/C=C/c2nc3cccnc3s2)c1` [Example 6, 2-(2-Oxo-2-{3-[(E)-2-(pyrido[3,2-d][1,3]thiazol-2-yl)-1-ethenyl]anilino}ethyl)benzoic acid], for which the “Combination with AZT” value came out at 5 µg/mL and the “Combination with LVFX” value is 20 µg/mL. On to `O=C(Cc1ccccc1C(=O)O)Nc1cccc(/C=C/c2nc3ccccc3o2)c1` [Example 7, 2-(2-3-[(E)-2-(1,3-Benzoxazol-2-yl)-1-ethenyl]anilino-2-oxoethyl)benzoic acid], for which the “Combination with AZT” value was found to be 5 µg/mL and the “Combination with LVFX” value turned out to be 2.5 µg/mL. For the compound `O=C(Cc1ccccc1C(=O)O)Nc1cccc(/C=C/c2nc(-c3ccncc3)cs2)c1` [Example 8, 2-[2-Oxo-2-(3-(E)-2-[4-(4-pyridyl)-1,3-thiazol-2-yl]-1-ethylanilino)ethyl]-benzoic acid], the “Combination with AZT” value was 2.5 µg/mL and the “Combination with LVFX” value was 0.63 µg/mL.

With `CC(C)c1cccc(COc2cccc(NC(=O)Cc3ccccc3C(=O)O)c2)n1` [Example 9, 2-(2-3-[(6-Isopropyl-2-pyridyl)methoxy]anilino-2-oxoethyl)benzoic acid], the “Combination with AZT” value worked out at 2.5 µg/mL and the “Combination with LVFX” value came to 0.63 µg/mL. Take `O=C(Cc1ccccc1C(=O)O)Nc1cccc(CCc2nc(-c3ccccc3)cs2)c1` [Example 10, 2-(2-Oxo-2-{3-[2-(4-phenyl-1,3-thiazol-2-yl)ethyl]anilino}ethyl)benzoic acid]: the “Combination with AZT” value was found to be 2.5 µg/mL and the “Combination with LVFX” value turned out to be 20 µg/mL. With `O=C(Cc1ccccc1C(=O)O)Nc1cccc(C2CC2c2nc(-c3ccccc3)cs2)c1` (centres unmarked) [Example 11, 2-(2-Oxo-2-{3-[2-(4-phenyl-1,3-thiazol-2-yl)cyclopropyl]anilino}ethyl)benzoic acid], the “Combination with AZT” value was found to be 40 µg/mL and the “Combination with LVFX” value is >40 µg/mL.

`O=C(Cc1ccccc1C(=O)O)Nc1cccc(C(=O)Nc2nc(-c3ccccc3)cs2)c1` [Example 12, 2-(2-Oxo-2-(3-((4-phenyl-1,3-thiazol-2-yl)amino)carbonylanilino)ethyl)-benzoic acid]: the “Combination with AZT” value came to 20 µg/mL and the “Combination with LVFX” value was >40 µg/mL. With `CC(C)c1nsc(COc2cc(NC(=O)Cc3ccccc3C(=O)O)c(F)cc2F)n1` [Example 13, 2-(2-2,4-Difluoro-5-[(3-isopropyl-1,2,4-thiadiazol-5-yl)methoxy]anilino-2-oxoethyl)benzoic acid], the “Combination with AZT” value is 1.25 µg/mL and the “Combination with LVFX” value is on record as “<=0.63 µg/ml”. In the case of `CC(C)c1csc(COc2cc(N)cc(NC(=O)Cc3ccccc3C(=O)O)c2)n1` [Example 14, 2-(3-Amino-5-((4-isopropyl-1,3-thiazol-2-yl)methoxy)anilino-2-oxoethyl)-benzoic acid], the “Combination with AZT” value is 10 µg/mL and the “Combination with LVFX” value is 10 µg/mL.

For `CC(C)c1csc(/C=C/c2cncc(NC(=O)[C@H]3OC(C)(C)O[C@@H]3C(=O)O)c2)n1` [Example 15, (4S,5S)-5-[(5-[(E)-2-(4-Isopropyl-1,3-thiazol-2-yl)-1-ethenyl]-3-pyridyl-amino)carbonyl]-2,2-dimethyl-1,3-dioxolane-4-carboxylic acid], the “Combination with AZT” value stood at 40 µg/mL and the “Combination with LVFX” value was determined as 20 µg/mL. As for `COC(=O)c1cc(NC(=O)Cc2ccccc2C(=O)O)cc(OCc2nc(C(C)C)cs2)c1` [Example 16, 2-(3-((4-Isopropyl-1,3-thiazol-2-yl)methoxy)-5-(methoxycarbonyl)anilino)-2-oxoethylbenzoic acid], the “Combination with AZT” value turned out to be 160 µg/mL and the “Combination with LVFX” value was found to be 160 µg/mL.

With `CC(C)c1csc(/C=C/c2cncc(NC(=O)Cc3ccccc3C(=O)O)c2)n1` [Example 17, 2-[2-(5-[(E)-2-(4-Isopropyl-1,3-thiazol-2-yl)-1-ethenyl]-3-pyridylamino)-2-oxoethyl]benzoic acid], the “Combination with AZT” value was found to be 1.25 µg/mL and the “Combination with LVFX” value stood at 0.63 µg/mL. For the compound `CC(C)c1csc(/C=C/c2cccc(NC(=O)Cc3ccccc3C(=O)O)n2)n1` [Example 18, 2-[2-(6-[(E)-2-(4-Isopropyl-1,3-thiazol-2-yl)-1-ethenyl]-2-pyridylamino)-2-oxoethyl]benzoic acid], the “Combination with AZT” value turned out to be 20 µg/mL and the “Combination with LVFX” value was 10 µg/mL.
